Assays:
[1] = molecular target: T1, Seed linoleate 13S-lipoxygenase-1 (Glycine max, UniProt P08170)
T1 sequence (P08170 whole entry): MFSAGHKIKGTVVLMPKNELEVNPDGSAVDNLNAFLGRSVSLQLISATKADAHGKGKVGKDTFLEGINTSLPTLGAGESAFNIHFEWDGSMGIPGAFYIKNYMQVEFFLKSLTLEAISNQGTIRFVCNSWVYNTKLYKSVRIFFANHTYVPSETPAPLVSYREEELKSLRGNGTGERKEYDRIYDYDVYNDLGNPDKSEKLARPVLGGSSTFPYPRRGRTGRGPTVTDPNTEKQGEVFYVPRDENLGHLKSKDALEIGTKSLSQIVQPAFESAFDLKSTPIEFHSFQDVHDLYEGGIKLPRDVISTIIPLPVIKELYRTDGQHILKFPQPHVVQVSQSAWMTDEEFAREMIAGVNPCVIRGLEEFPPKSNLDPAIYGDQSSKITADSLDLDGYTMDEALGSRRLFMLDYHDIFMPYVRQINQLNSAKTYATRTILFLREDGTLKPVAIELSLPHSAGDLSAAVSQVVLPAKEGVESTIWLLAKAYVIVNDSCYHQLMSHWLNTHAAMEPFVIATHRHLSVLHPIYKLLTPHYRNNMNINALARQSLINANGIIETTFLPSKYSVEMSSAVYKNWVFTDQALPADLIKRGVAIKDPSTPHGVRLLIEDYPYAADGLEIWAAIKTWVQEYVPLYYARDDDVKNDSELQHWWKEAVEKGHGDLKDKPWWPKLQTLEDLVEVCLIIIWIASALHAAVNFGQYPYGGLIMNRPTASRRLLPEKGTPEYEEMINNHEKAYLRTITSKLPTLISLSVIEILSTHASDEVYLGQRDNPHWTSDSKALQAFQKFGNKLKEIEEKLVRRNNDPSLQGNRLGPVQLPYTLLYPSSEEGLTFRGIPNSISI
Description: In vitro inhibitory activity against 15-lipoxygenase obtained from soybean

[2] = molecular target: T2, Prostaglandin G/H synthase 1 (Ovis aries, UniProt P05979); test: In vitro inhibitory activity against ovine cyclooxygenase 1
T2 sequence (P05979 whole entry): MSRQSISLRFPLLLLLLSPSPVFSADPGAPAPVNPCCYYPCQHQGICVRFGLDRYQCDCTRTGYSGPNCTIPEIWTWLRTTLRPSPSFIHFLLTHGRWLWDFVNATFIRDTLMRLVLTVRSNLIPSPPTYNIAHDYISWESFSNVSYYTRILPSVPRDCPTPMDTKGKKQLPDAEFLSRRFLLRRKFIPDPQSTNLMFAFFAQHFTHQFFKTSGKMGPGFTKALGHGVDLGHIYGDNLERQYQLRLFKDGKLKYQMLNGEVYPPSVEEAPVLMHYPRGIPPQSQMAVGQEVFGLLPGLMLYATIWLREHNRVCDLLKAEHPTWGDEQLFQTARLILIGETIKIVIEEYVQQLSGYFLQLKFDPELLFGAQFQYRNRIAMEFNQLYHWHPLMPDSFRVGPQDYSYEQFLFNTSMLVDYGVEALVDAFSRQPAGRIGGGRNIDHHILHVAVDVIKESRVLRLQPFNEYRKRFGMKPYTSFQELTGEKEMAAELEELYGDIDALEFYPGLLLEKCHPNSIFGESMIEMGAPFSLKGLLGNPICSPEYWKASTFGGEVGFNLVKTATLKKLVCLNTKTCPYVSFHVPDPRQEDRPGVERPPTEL

[3] = molecular target: T1, Seed linoleate 13S-lipoxygenase-1; remark: listed apart in the source
Description: In vitro inhibitory activity against 5-lipoxygenase obtained from potato

| SMILES | IC50 [1] [µM] | IC50 [2] [µM] | IC50 [3] [µM] |
| --- | --- | --- | --- |
| O=c1cc(-c2ccc(O)c(O)c2)oc2cc(O)cc(O)c12 [LUTEOLIN] | 3.2 |  |  |
| CS(=O)(=O)c1ccc(C#CC(=O)c2ccccc2)cc1 | > 10 | 1 |  |
| CS(=O)(=O)c1ccc(C#CC(=O)c2ccc(F)cc2)cc1 | 1 | 30 | > 10 |
| CS(=O)(=O)c1ccc(C#CC(=O)c2ccc(F)c(F)c2)cc1 | 3.2 | 3.1 | 0.4 |
| COc1cc(C(=O)C#Cc2ccc(S(C)(=O)=O)cc2)cc(OC)c1OC | > 10 | > 100 | 7 |
| CS(=O)(=O)c1ccc(C#CC(=O)c2ccc(O)cc2)cc1 | 0.32 | 3.5 | 0.3 |
| COc1ccc(C(=O)C#Cc2ccc(S(C)(=O)=O)cc2)cc1O | 0.3 | 1 | > 10 |
| COc1cccc(C(=O)C#Cc2ccc(S(C)(=O)=O)cc2)c1 | > 10 | > 100 | 9 |
| CS(=O)(=O)c1ccc(C#CC(=O)c2ccc(C#N)cc2)cc1 |  | 31.5 |  |
| CS(=O)(=O)c1ccc(C#CC(=O)c2cccc(O)c2)cc1 | 0.5 | > 100 | 0.3 |
| CS(=O)(=O)c1ccc(C#CC(=O)c2ccc(C(F)(F)F)cc2)cc1 | > 10 | 3.1 | > 10 |
| COc1ccc(C(=O)C#Cc2ccc(S(C)(=O)=O)cc2)cc1 | 3.5 |  | > 10 |
| Cc1ccc(C(=O)C#Cc2ccc(S(C)(=O)=O)cc2)cc1 | > 10 | > 100 | > 10 |
| COc1cc(C(=O)C#Cc2ccc(S(C)(=O)=O)cc2)ccc1O | 0.1 | 1.1 | > 10 |
